Source: patent US10556907B2 (AbbVie Inc., priority 2015, dated 2020)
Structures can show the parent of a compound that is named as a salt.

How the values were obtained:
Experiment in all cases: Method 1: intracellular Ca2+ release (FLIPR, Calcium 5) in recombinant CHO-K1 cells
Format in all cases: cell-based
[1] = molecular target: T1, human S1PR5 receptor (Homo sapiens, UniProt Q9H228); conditions: agonist potency, determined with method 1 (symbols A-D); read-out: S1P5 EC50 range
T1 construct: host or cells: CHO-K1
T1 sequence (Q9H228 whole entry): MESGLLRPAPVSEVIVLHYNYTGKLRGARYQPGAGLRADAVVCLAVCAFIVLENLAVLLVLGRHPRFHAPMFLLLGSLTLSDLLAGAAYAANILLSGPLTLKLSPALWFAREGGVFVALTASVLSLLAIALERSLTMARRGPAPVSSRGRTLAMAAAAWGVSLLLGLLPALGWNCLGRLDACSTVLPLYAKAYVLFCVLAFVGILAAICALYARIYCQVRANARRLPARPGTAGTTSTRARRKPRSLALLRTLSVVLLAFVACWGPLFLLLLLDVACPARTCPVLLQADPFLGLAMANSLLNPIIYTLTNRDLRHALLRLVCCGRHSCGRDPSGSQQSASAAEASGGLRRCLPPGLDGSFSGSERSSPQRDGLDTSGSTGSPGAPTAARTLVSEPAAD
How it was run: (§1)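 Agonist EC50; CHO-K1 + Gq/i5 + aequorin; Calcium 5 dye 1 h 37 °C, 45 min RT; serial-dilution compound add; FLIPR read; normalized to phospho-fingolimod.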

[2] = molecular target: T2, human S1PR1 receptor (Homo sapiens, UniProt P21453); conditions: (1): determined with method 1; read-out: S1P1 EC50
T2 construct: host or cells: CHO-K1
T2 sequence (P21453 whole entry): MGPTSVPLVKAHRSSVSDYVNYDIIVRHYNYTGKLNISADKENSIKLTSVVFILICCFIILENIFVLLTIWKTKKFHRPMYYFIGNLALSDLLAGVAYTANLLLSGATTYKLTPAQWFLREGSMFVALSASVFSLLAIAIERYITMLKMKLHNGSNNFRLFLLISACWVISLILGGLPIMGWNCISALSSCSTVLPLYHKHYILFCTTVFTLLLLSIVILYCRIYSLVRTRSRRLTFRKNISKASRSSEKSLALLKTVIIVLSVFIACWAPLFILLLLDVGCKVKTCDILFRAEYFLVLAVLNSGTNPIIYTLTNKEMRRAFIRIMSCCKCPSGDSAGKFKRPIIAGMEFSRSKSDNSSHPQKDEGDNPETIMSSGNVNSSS
How it was run: as §1

[3] = molecular target: T3, human S1PR4 receptor (Homo sapiens, UniProt O95977); conditions: (1): determined with method 1; read-out: S1P4 EC50
T3 construct: host or cells: CHO-K1
T3 sequence (O95977 1-384): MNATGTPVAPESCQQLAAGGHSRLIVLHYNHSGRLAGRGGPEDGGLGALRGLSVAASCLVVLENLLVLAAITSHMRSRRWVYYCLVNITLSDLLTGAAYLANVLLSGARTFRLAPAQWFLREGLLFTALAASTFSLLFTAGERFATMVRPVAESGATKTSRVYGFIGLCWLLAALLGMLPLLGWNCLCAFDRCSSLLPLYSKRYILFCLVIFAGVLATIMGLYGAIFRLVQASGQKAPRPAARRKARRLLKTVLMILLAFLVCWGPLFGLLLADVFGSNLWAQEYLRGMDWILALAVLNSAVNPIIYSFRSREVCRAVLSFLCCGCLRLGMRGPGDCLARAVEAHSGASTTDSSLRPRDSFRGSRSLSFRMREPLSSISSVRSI
How it was run: as §1

SMILES	EC50 [1] [nM]	EC50 [2] [nM]	EC50 [3] [nM]
CC(CC(=O)O)CN1CCc2nc(-c3ccc(CCc4ccccc4)cc3F)ncc2C1 (stereo not drawn) [Compound 280, 4-(2-(2-fluoro-4-phenethylphenyl)-7,8-dihydropyrido[4,3-d]pyrimidin-6(5H)-yl)-3-methylbutanoic acid]	10 to 100	> 1000	> 1000
CC(CC(=O)O)CN1CCc2nc(-c3ccc(/C=C/c4ccc(Cl)cc4F)cc3)ncc2C1 (stereo not drawn) [Compound 282]	10 to 100	> 1000	> 1000
O=C(O)C1CC(N2CCc3nc(-c4ccc(OCc5ccc(Cl)cc5)cc4)ncc3C2)C1 (stereo not drawn) [Compound 287, 3-(2-(4-((4-chlorobenzyl)oxy)phenyl)-7,8-dihydropyrido[4,3-d]pyrimidin-6(5H)-yl)cyclobutanecarboxylic acid]	100 to 1000	> 1000	> 1000
O=C(O)C1CCC(N2CCc3nc(-c4ccc(OCc5cccc(Cl)c5)cc4)ncc3C2)C1 (stereo not drawn) [Compound 288, 3-(2-(4-((3-chlorobenzyl)oxy)phenyl)-7,8-dihydropyrido[4,3-d]pyrimidin-6(5H)-yl)cyclopentanecarboxylic acid hydrochloride]	100 to 1000	> 1000	> 1000
CC(CC(=O)O)CN1CCc2nc(-c3ccc(OCc4cccc(F)c4)cc3F)ncc2C1 (stereo not drawn) [Compound 289, 4-[2-[2-fluoro-4-[(3-fluorophenyl)methoxy]phenyl]-7,8-dihydro-5H-pyrido[4,3-d]pyrimidin-6-yl]-3-methyl-butanoic acid 2,2,2-trifluoroacetic acid salt]	100 to 1000	> 1000	> 1000
Cc1ccc(C(F)(F)F)c(COc2ccc(-c3ncc4c(n3)CCN(CC(C)CC(=O)O)C4)c(F)c2)c1 (stereo not drawn) [Compound 290, 4-[2-[2-fluoro-4-[[5-methyl-2-(trifluoromethyl)phenyl]methoxy]phenyl]-7,8-dihydro-5H-pyrido[4,3-d]pyrimidin-6-yl]-3-methyl-butanoic acid 2,2,2-trifluoroacetic acid salt]	100 to 1000	> 1000	> 1000
Cc1cc(-c2ncc3c(n2)CCN(CC(C)CC(=O)O)C3)ccc1CCc1ccc(Cl)cc1 (stereo not drawn) [Compound 291, 4-(2-(4-(4-chlorophenethyl)-3-methylphenyl)-7,8-dihydropyrido[4,3-d]pyrimidin-6(5H)-yl)-3-methylbutanoic acid]	100 to 1000	> 1000	> 1000
CC(CC(=O)O)CN1CCc2nc(-c3ccc(CCc4cccc(Cl)c4)cc3F)ncc2C1 (stereo not drawn) [Compound 292, 4-(2-(4-(3-chlorophenethyl)-2-fluorophenyl)-7,8-dihydropyrido[4,3-d]pyrimidin-6(5H)-yl)-3-methylbutanoic acid]	100 to 1000	> 1000	> 1000
CC(CC(=O)O)CN1CCc2nc(-c3ccc(C4CC4c4cccc(Cl)c4)cc3)ncc2C1 (stereo not drawn) [Compound 293, 4-(2-(4-(2-(3-chlorophenyl)cyclopropyl)phenyl)-7,8-dihydropyrido[4,3-d]pyrimidin-6(5H)-yl)-3-methylbutanoic acid]	100 to 1000	> 1000	> 1000
O=C(O)C1CCC(N2CCc3nc(-c4ccc(OCc5ccc(Cl)cc5)cc4)ncc3C2)C1 (stereo not drawn) [Compound 295, 3-(2-(4-((4-chlorobenzyl)oxy)phenyl)-7,8-dihydropyrido[4,3-d]pyrimidin-6(5H)-yl)cyclopentanecarboxylic acid]	100 to 1000	> 1000	> 1000
CCc1ccccc1COc1ccc(-c2ncc3c(n2)CCN(CC(C)CC(=O)O)C3)c(F)c1 (stereo not drawn) [Compound 296, 4-[2-[4-[(2-ethylphenyl)methoxy]-2-fluoro-phenyl]-7,8-dihydro-5H-pyrido[4,3-d]pyrimidin-6-yl]-3-methyl-butanoic acid 2,2,2-trifluoroacetic acid salt]	100 to 1000	> 1000	> 1000
CC(CC(=O)O)CN1CCc2nc(-c3ccc(/C=C/c4ccc(Cl)cc4)cc3)ncc2C1 (stereo not drawn) [Compound 297, 4-(2-(4-(4-chlorostyryl)phenyl)-7,8-dihydropyrido[4,3-d]pyrimidin-6(5H)-yl)-3-methylbutanoic acid]	100 to 1000	> 1000	> 1000
CC(CC(=O)O)CN1CCc2nc(-c3ccc(OCc4ccc(F)cc4)cc3F)ncc2C1 (stereo not drawn) [Compound 298, 4-[2-[2-fluoro-4-[(4-fluorophenyl)methoxy]phenyl]-7,8-dihydro-5H-pyrido[4,3-d]pyrimidin-6-yl]-3-methyl-butanoic acid 2,2,2-trifluoroacetic acid salt]	100 to 1000	> 1000	> 1000
CC(C(=O)O)N1CCc2nc(-c3ccc(OCc4cc(F)cc(F)c4)cc3)ncc2C1 (stereo not drawn) [Compound 299, 2-(2-(4-((3,5-difluorobenzyl)oxy)phenyl)-7,8-dihydropyrido[4,3-d]pyrimidin-6(5H)-yl)propanoic acid]	100 to 1000	> 1000	> 1000
Cc1cc(-c2ncc3c(n2)CCN(CC(C)CC(=O)O)C3)ccc1OCc1cccc(C)c1C (stereo not drawn) [Compound 300, 4-[2-[4-[(2,3-dimethylphenyl)methoxy]-3-methyl-phenyl]-7,8-dihydro-5H-pyrido[4,3-d]pyrimidin-6-yl]-3-methyl-butanoic acid 2,2,2-trifluoroacetic acid salt]	100 to 1000	> 1000	> 1000
Cc1ccc(COc2ccc(-c3ncc4c(n3)CCN(CC(C)CC(=O)O)C4)cc2C)cc1 (stereo not drawn) [Compound 301, 3-methyl-4-[2-[3-methyl-4-(p-tolylmethoxy)phenyl]-7,8-dihydro-5H-pyrido[4,3-d]pyrimidin-6-yl]butanoic acid 2,2,2-trifluoroacetic acid salt]	100 to 1000	> 1000	> 1000
Cc1cc(-c2ncc3c(n2)CCN(CC(C)CC(=O)O)C3)ccc1OCc1cccc(C(F)(F)F)c1 (stereo not drawn) [Compound 302, 3-methyl-4-[2-[3-methyl-4-[[3-(trifluoromethyl)phenyl]methoxy]phenyl]-7,8-dihydro-5H-pyrido[4,3-d]pyrimidin-6-yl]butanoic acid 2,2,2-trifluoroacetic acid salt]	100 to 1000	> 1000	> 1000
Cc1ccccc1COc1ccc(-c2ncc3c(n2)CCN(C[C@H](C)CC(=O)O)C3)cc1C [Compound 303]	100 to 1000	> 1000	< 1000
Cc1ccc(COc2ccc(-c3ncc4c(n3)CCN(CC(C)CC(=O)O)C4)c(F)c2)c(C)c1 (stereo not drawn) [Compound 304, 4-[2-[4-[(2,4-dimethylphenyl)methoxy]-2-fluoro-phenyl]-7,8-dihydro-5H-pyrido[4,3-d]pyrimidin-6-yl]-3-methyl-butanoic acid 2,2,2-trifluoroacetic acid salt]	100 to 1000	> 1000	> 1000
Cc1ccc(COc2ccc(-c3ncc4c(n3)CCN(CC(C)CC(=O)O)C4)cc2C)c(C)c1 (stereo not drawn) [Compound 305, 4-[2-[4-[(2,4-dimethylphenyl)methoxy]-3-methyl-phenyl]-7,8-dihydro-5H-pyrido[4,3-d]pyrimidin-6-yl]-3-methyl-butanoic acid 2,2,2-trifluoroacetic acid salt]	100 to 1000	> 1000	> 1000
CCc1ccc(COc2ccc(-c3ncc4c(n3)CCN(CC(C)CC(=O)O)C4)cc2C)cc1 (stereo not drawn) [Compound 306, 4-[2-[4-[(4-ethylphenyl)methoxy]-3-methyl-phenyl]-7,8-dihydro-5H-pyrido[4,3-d]pyrimidin-6-yl]-3-methyl-butanoic acid 2,2,2-trifluoroacetic acid salt]	100 to 1000	> 1000	> 1000
Cc1ccc(COc2ccc(-c3ncc4c(n3)CCN(CC(C)CC(=O)O)C4)c(F)c2)cc1 (stereo not drawn) [Compound 307, 4-[2-[2-fluoro-4-(p-tolylmethoxy)phenyl]-7,8-dihydro-5H-pyrido[4,3-d]pyrimidin-6-yl]-3-methyl-butanoic acid 2,2,2-trifluoroacetic acid salt]	100 to 1000	> 1000	> 1000
CCc1ccccc1COc1ccc(-c2ncc3c(n2)CCN(CC(C)CC(=O)O)C3)cc1C (stereo not drawn) [Compound 308, 4-[2-[4-[(2-ethylphenyl)methoxy]-3-methyl-phenyl]-7,8-dihydro-5H-pyrido[4,3-d]pyrimidin-6-yl]-3-methyl-butanoic acid 2,2,2-trifluoroacetic acid salt]	100 to 1000	> 1000	< 1000
Cc1cc(-c2ncc3c(n2)CCN(CC(C)CC(=O)O)C3)ccc1OCc1ccccc1C(F)(F)F (stereo not drawn) [Compound 309, 3-methyl-4-[2-[3-methyl-4-[[2-(trifluoromethyl)phenyl]methoxy]phenyl]-7,8-dihydro-5H-pyrido[4,3-d]pyrimidin-6-yl]butanoic acid 2,2,2-trifluoroacetic acid salt]	100 to 1000	> 1000	> 1000
